# Publication PMC6009590 (The Journal of Infectious Diseases, 2018)
# [ ]: non-standard residue; d: D form. The star is where a group is joined. X1 = CC(C)CCC[C@@H](C)[C@H]1CC[C@H]2[C@@H]3CC=C4C[C@@H](OC(=O)C*)CC[C@]4(C)[C@H]3CC[C@]12C; PEG4 = NCCOCCOCCOCCOCCC(=O)O
# Assays:
# [1] = target: T1, proteinase K (Parengyodontium album, UniProt P06873); conditions: isolated enzyme proteinase k, pH 7.5
# [2] = in vivo
# [3] = target: T1, proteinase K; assay: in vitro; conditions: isolated enzyme proteinase k, pH 7.5
# T1 sequence (P06873 106-384): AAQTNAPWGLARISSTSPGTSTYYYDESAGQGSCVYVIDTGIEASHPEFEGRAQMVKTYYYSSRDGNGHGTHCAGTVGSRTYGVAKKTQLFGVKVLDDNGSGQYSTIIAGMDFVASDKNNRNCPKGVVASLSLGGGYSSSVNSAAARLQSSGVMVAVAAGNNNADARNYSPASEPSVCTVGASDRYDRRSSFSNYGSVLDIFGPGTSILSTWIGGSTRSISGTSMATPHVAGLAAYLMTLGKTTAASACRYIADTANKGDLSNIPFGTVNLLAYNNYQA
Substance,half-life of the intact peptide fraction [1] [min],"biodistribution (lung, blood, CNS) [2]",half-life [3] [min]
Ac-VALDPIDISIVLNKIKSDLEESKEWIRRSNKILDSI-GSGSG-dPEG4-C-(PEG4-Chol)2-NH2 [VIKI-dPEG4-bisChol],3,,
Ac-VALDPIDISIVLNKIKSDLEESKEWIRRSNKILDSI-GSGSG-dPEG4-C-(PEG4-Toco)2-NH2 [VIKI-dPEG4-bisToco],5,,
Ac-VALDPIDISIVLNKIKSDLEESKEWIRRSNKILDSIGSGSG[PEG4]C(X1)-NH2 [VIKI-dPEG4-Chol],,reached high levels in the lung,10
